Converted amounts (≈) assume the structure as drawn. Read-outs that look alike come from different tables or passages of the source.
Tests used:
[1] = Cytotoxicity in plaque reduction assay, CV-1 cells; format: cell-based, African Green Monkey; conditions: monkey, Table 9B, read-out: CD50 (the source's name)
[2] = tested on: HCMV, strain C8805-37 (DHPG resistant); assay: microbe, parasite or virus in culture; format: cell-based, Human Cytomegalovirus; design: TI50 (CD50 ÷ ED50): unit not given beside the values; conditions: for # Plaques: virus control 11.5 ± 2.1
in vitro = conditions: guinea pig, gpe cells
[3] = tested on: HCMV, strain C8704 (DHPG resistant); assay: microbe, parasite or virus in culture; format: cell-based, Human Cytomegalovirus; design: TI50 (CD50 ÷ ED50): unit not given beside the values; conditions: for # Plaques: virus control 91.0 ± 8.4
HCMV, strain AD-169 = assay: Plaque reduction assay, HCMV strain AD-169; format: cell-based, Human Cytomegalovirus; design: TI50 (CD50 ÷ ED50): unit not given here; conditions: for EC50: read-out: ED50 (the source's name)
[4] = tested on: Varicella-Zoster Virus, strain Oka; assay: microbe, parasite or virus in culture; format: cell-based; design: TI50 (CD50 ÷ ED50): unit not given beside the values
[5] = Cytotoxicity in plaque reduction assay, MRC-5 cells; format: cell-based, human; conditions: human, mrc-5 cells, read-out: CD50 (the source's name)
Protocol: (§1) Cytotoxicity was determined by examination of cells (located away from plaques) in infected wells which had been treated with drug.

[6] = tested on: Guinea Pig Cytomegalovirus, Strain 22122; assay: CPE reduction assay, guinea pig cytomegalovirus in GPE cells; format: cell-based; design: TI50 (CD50 ÷ ED50): unit not given here; conditions: for Average CPE: virus controls 4.0
[7] = Cytotoxicity in plaque reduction assay, Hs68 cells; format: cell-based; conditions: human, Table 5, previous data, read-out: CD50 (the source's name)
Protocol: as §1

[8] = Human betaherpesvirus 5, MRC5, DHPG 1.0 μg/ml, read-out: % Reduction
[9] = Human betaherpesvirus 5, MRC5, DHPG 3.2 μg/ml, read-out: % Reduction
[10] = Human betaherpesvirus 5, MRC5, DHPG 10 μg/ml, read-out: % Reduction
[11] = Human betaherpesvirus 5, MRC5, DHPG 32 μg/ml, read-out: % Reduction
[12] = Human alphaherpesvirus 3, CV-1, read-out: % Reduction
[13] = Human alphaherpesvirus 3, MRC5, read-out: % Reduction

With `Nc1nc(O)c2ncn(COC(CO)CO)c2n1` [DHPG, dihydroxypropoxymethylguanine, reference compound] the CC50 [1] was greater than 10 µg/mL, the “# Plaques” value ([2]; DHPG 1.0 μg/ml) was 13 and the “# Plaques” value ([2]; DHPG 3.2 μg/ml) was 6.5. For the same compound, the “# Plaques” value ([2]; DHPG 10 μg/ml) was 10, the “# Plaques” value ([2]; DHPG 32 μg/ml) was 4.5 and the inhibition at 1 µg/mL [2, 8] was 0%. For the same compound, the inhibition at 3.2 µg/mL [2, 9] was 43%, the inhibition at 10 µg/mL [2, 10] was 0% and the inhibition at 32 µg/mL [2, 11] was 61%. The EC50 ([2]; Human betaherpesvirus 5, MRC5, MRC-5 cells, Table 7, read-out: ED50 (the source's name)) was 11 µg/mL (≈ 43.1 µM), the “TI50 (CD50 ÷ ED50)” value ([2]; MRC-5 cells, Table 7) was greater than 91 and the CC50 (in vitro) was greater than 1000 µg/mL. For the same compound, the “# Plaques” value ([3]; DHPG 1.0 μg/ml) was 92.5, the “# Plaques” value ([3]; DHPG 3.2 μg/ml) was 85 and the “# Plaques” value ([3]; DHPG 10 μg/ml) was 80. For the same compound, the “# Plaques” value ([3]; DHPG 32 μg/ml) was 91, the inhibition at 1 µg/mL [3, 8] was 0% and the inhibition at 3.2 µg/mL [3, 9] was 0%. The inhibition at 10 µg/mL [3, 10] was 0%, the inhibition at 32 µg/mL [3, 11] was 41% and the EC50 ([3]; Human betaherpesvirus 5, MRC5, MRC-5 cells, Table 6, read-out: ED50 (the source's name)) was greater than 32 µg/mL. For the same compound, the EC50 ([3]; Human betaherpesvirus 5, MRC5, MRC-5 cells, Table 6, read-out: ED50, approximate value in parentheses) was roughly 41 µg/mL (≈ 161 µM), the “TI50 (CD50 ÷ ED50)” value ([3]; MRC-5 cells, Table 6) was greater than 24 and the “TI50 (CD50 ÷ ED50)” value (HCMV, strain AD-169; Hs-68 cells, Table 5) was greater than 526. The “# Plaques” value (HCMV, strain AD-169; Hs-68 cells, DHPG 1.0 μg/ml, virus control 74.2 ± 8.6) was 68.5, the “# Plaques” value (HCMV, strain AD-169; Hs-68 cells, DHPG 3.2 μg/ml, virus control 74.2 ± 8.6) was 7 and the “# Plaques” value (HCMV, strain AD-169; Hs-68 cells, DHPG .32 μg/ml, virus control 74.2 ± 8.6) was 100.5. For the same compound, the EC50 (HCMV, strain AD-169; Human betaherpesvirus 5, AD169, Hs68, Hs-68 cells, Table 5) was 1.9 µg/mL (≈ 7.44 µM), the EC50 (HCMV, strain AD-169; Human betaherpesvirus 5, AD169, MRC5, MRC-5 cells, Table 4) was 3.7 µg/mL (≈ 14.5 µM) and the “TI50 (CD50 ÷ ED50)” value (HCMV, strain AD-169; MRC-5 cells, Table 4) was greater than 27. For the same compound, the “# Plaques” value (HCMV, strain AD-169; MRC-5 cells, DHPG 3.2 μg/ml, virus control 26.4 ± 5.2) was 15, the “# Plaques” value (HCMV, strain AD-169; MRC-5 cells, DHPG 10 μg/ml, virus control 26.4 ± 5.2) was 0.5 and the “# Plaques” value (HCMV, strain AD-169; MRC-5 cells, DHPG 32 μg/ml, virus control 26.4 ± 5.2) was 0. For the same compound, the “# Plaques” value (HCMV, strain AD-169; MRC-5 cells, DHPG 100 μg/ml, virus control 26.4 ± 5.2) was 0, the “# Plaques” value ([4]; CV-1 cells, DHPG 3.2 μg/ml, virus control 70.25 ± 6.9) was 77 and the “# Plaques” value ([4]; CV-1 cells, DHPG 10 μg/ml, virus control 70.25 ± 6.9) was 63. It also gave an inhibition at 3.2 µg/mL [4, 12] of 0%, an inhibition at 10 µg/mL [4, 12] of 10% and an EC50 ([4]; Human alphaherpesvirus 3, CV-1, read-out: ED50) greater than 10 µg/mL. The inhibition at 0.32 µg/mL [4, 13] was 0%, the inhibition at 1 µg/mL [4, 13] was 0% and the inhibition at 3.2 µg/mL [4, 13] was 0%. For the same compound, the inhibition at 10 µg/mL [4, 13] was 62%, the EC50 ([4]; Human alphaherpesvirus 3, MRC5, read-out: ED50) was 8 µg/mL (≈ 31.3 µM) and the “TI50 (CD50 ÷ ED50)” value ([4]; MRC-5 cells, Table 9A) was greater than 125. For the same compound, the “# Plaques” value ([4]; MRC-5 cells, DHPG 0.32 μg/ml, virus control 32.7 ± 9.3) was 24.5, the “# Plaques” value ([4]; MRC-5 cells, DHPG 1.0 μg/ml, virus control 32.7 ± 9.3) was 37 and the “# Plaques” value ([4]; MRC-5 cells, DHPG 3.2 μg/ml, virus control 32.7 ± 9.3) was 25. The “# Plaques” value ([4]; MRC-5 cells, DHPG 10 μg/ml, virus control 32.7 ± 9.3) was 12.5, the CC50 ([5]; Table 4) was greater than 100 µg/mL and the CC50 ([5]; Table 6, previous data) was greater than 1000 µg/mL. The CC50 ([5]; Table 7, previous data) was greater than 1000 µg/mL, the CC50 ([5]; Table 9A, previous data) was greater than 1000 µg/mL and the EC50 ([6]; Caviid betaherpesvirus 2, GPE cells, Table 3, read-out: ED50 (the source's name)) was 18.4 µg/mL (≈ 72.1 µM). For the same compound, the “Average CPE” value ([6]; DHPG 1.0 μg/ml) was 4.0, the “Average CPE” value ([6]; DHPG 3.2 μg/ml) was 4.0 and the “Average CPE” value ([6]; DHPG 10 μg/ml) was 3.5. For the same compound, the “Average CPE” value ([6]; DHPG 32 μg/ml) was 0.7, the “Average CPE” value ([6]; DHPG 100 μg/ml) was 0 and the “Average CPE” value ([6]; DHPG 320 μg/ml) was 0. The “Average CPE” value ([6]; DHPG 1000 μg/ml) was 0, the “TI50 (CD50 ÷ ED50)” value ([6]; GPE cells, Table 3) was greater than 54 and the CC50 [7] was greater than 1000 µg/mL.

— US5321030A, “Creatine analogs having antiviral activity” (priority 1991, dated 1994)
